Assay results published in patent US7265135B2 (Ortho-McNeil Pharmaceutical, Inc., priority 2001, dated 2007).

Molecular target: T1, human histamine H3 receptor (Homo sapiens, UniProt Q9Y5N1)
T1 construct: One μg supercoiled H3 receptor cDNA was added to the cells and mixed; expressed in transfected cells; membranes prepared from cell pellets
Assay: [3H]-N-methylhistamine binding assay
Method: The histamine H3 receptor binding effectiveness of compounds of the present invention was determined using the human histamine H3 receptor, Lovenberg et al Mol. Pharmacol. 1999, 1107. Screening using the human receptor is particularly important for the identification of new therapies for the treatment of human disease. Prior binding assays, for example, relied on rat synaptosomes (Garbarg et al J. Pharmacol. Exp. Ther. 1992, 263, 304), rat cortical membranes (West et al Mol. Pharmacol. 1990, 610), and guinea pig brain (Korte et al Biochem. Biophys. Res. Commun. 1990, 978). A recent comparative study comparing human H3 receptor activity with H3 receptors from rodent and primate have shown significant differences in the respective pharmacology of the rodent and primate receptors to the human receptor. (West et al Eur. J. Pharmacol. 1999, 233; Lovenberg et al., J. Pharmacol. Exp. Ther. 2000, 293, 771-778.)
A 10 cm tissue culture dish with a confluent monolayer of SK-N-MC cells was split two days prior to transfection. Using sterile technique the media was removed and the cells were detached from the dish by the addition of trypsin. One fifth of the cells were then placed onto a new 10 cm dish. Cells were grown in a 37° C. incubator with 5% CO2 in Minimal Essential Media Eagle with 10% Fetal Bovine Serum. After two days cells were approximately 80% confluent. These were removed from the dish with trypsin and pelleted in a clinical centrifuge. The pellet was then re-suspended in 400 μL complete media and transferred to an electroporation cuvette with a 0.4 cm gap between the electrodes (Bio-Rad #165-2088). One μg supercoiled H3 receptor cDNA was added to the cells and mixed. The voltage for the electroporation was set at 0.25 kV, the capacitance is set at 960 μF. After electroporation the cells were diluted into 10 mL complete media and plated onto four 10 cm dishes. Because of the variability in the efficiency of electroporation four different concentrations of cells were plated. The ratios used were; 1:20, 1:10, 1:5, with the remainder of the cells being added to the fourth dish. The cells were allowed to recover for 24 h before adding the selection media (complete media with 600 μg/mL G418). After 10 days dishes were analyzed for surviving colonies of cells. Dishes with well isolated colonies were used. Cells from individual colonies were isolated and tested. SK-N-MC cells were used because they give efficient coupling for inhibition of adenylate cyclase. The clones that gave the most robust inhibition of adenylate cyclase in response to histamine were used for further study.
Cell pellets from histamine H3 receptor-expressing SK-N-MC cells were homogenized in 20 mM Tris HCl/0.5 mM EDTA. Supernatants from a 800 g spin were collected, recentrifuged at 30,000 g for 30 minutes. Pellets were re-homogenized in 50 mM Tris/5 mM EDTA (pH 7.4). Membranes were incubated with 0.8 nM [^3H]-N-methylhistamine plus/minus test compounds for 45 min at 25° C. and harvested by rapid filtration over GF/C glass fiber filters (pretreated with 0.3% polyethylenimine) followed by four washes with ice cold buffer. Filters were dried, added to 4 mL scintillation cocktail and then counted on a liquid scintillation counter. Non-specific binding was defined with 10 μM histamine. PKi values were calculated based on a KD of 800 pM and a ligand concentration ([L]) of 800 pM according to the formula: Ki=(IC50)/(1+([L]/(KD))

[1] = membranes of histamine H3 receptor-expressing SK-N-MC cells, 0.8 nM [3H]-N-methylhistamine, 45 min at 25° C., Ki=(IC50)/(1+([L]/(KD))
[2] = value printed in text of Example XVI Step B, no unit at the place

T1 sequence (Q9Y5N1 whole entry): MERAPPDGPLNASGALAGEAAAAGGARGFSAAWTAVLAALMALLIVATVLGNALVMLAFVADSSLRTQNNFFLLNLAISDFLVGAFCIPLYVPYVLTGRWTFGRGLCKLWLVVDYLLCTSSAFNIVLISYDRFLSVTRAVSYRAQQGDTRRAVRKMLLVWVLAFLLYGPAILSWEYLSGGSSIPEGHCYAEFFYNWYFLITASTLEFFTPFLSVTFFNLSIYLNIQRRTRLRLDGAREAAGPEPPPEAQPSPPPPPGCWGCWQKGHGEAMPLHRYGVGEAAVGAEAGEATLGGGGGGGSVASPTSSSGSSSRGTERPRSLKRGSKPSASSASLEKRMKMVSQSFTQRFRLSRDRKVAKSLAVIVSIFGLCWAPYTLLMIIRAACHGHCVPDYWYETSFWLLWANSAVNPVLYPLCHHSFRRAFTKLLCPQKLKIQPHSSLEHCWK

Row | Structure (SMILES) | Ki [1] | Ki [2]
1 | CC(C)N1CCC(COc2ncc(C(=O)c3cc(Cl)cc(Cl)c3)n2C)CC1 [(3,5-Dichlorophenyl)-[2-(1-isopropyl-piperidin-4-ylmethoxy)-3-methyl-3H-imidazol-4-yl]-methanone] | 4 nM | 
2 | CC(C)N1CCC(Sc2ncc(C(=O)c3ccc(Cl)cc3)n2C)CC1 [(4-Chlorophenyl)-[2-(1-isopropyl-piperidin-4-ylsulfanyl)-3-methyl-3H-imidazol-4-yl]-methanone] | 3 nM | 
3 | Cn1c(C(=O)c2cccc3ccccc23)cnc1OCCCN1CCCCC1 [[3-Methyl-2-(3-piperidin-1-yl-propoxy)-3H-imidazol-4-yl]-naphthalen-1-yl-methanone] | 79 nM | 
4 | Cn1c(CN2CCCCC2)cnc1OCCCN1CCCCC1 [[3-Methyl-2-(3-piperidin-1-yl-propoxy)-3H-imidazol-4-yl]-piperidin-1-yl-methane] | 36.4 nM | 
5 | Cn1c(C(=O)c2ccc(Cl)cc2)cnc1SCCCN1CCCCC1 [(4-Chlorophenyl)-[3-methyl-2-(3-piperidin-1-yl-propylsulfanyl)-3H-imidazol-4-yl]-methanone] | 3.1 nM | 
6 | CN(C)CCSc1ncc(C(=O)c2ccc(Cl)cc2)n1C [(4-Chloro-phenyl)-[2-(2-dimethylamino-ethylsulfanyl)-3-methyl-3H-imidazol-4-yl]methanone] | 98 nM | 
7 | CN(C)CCCSc1ncc(C(=NO)c2ccc(Cl)cc2)n1C (mixture of isomers) [(4-Chlorophenyl)-[2-(3-dimethylamino-propylsulfanyl)-3-methyl-3H-imidazol-4-yl]-methanone oxime] | 3.2 nM | 
8 | CC(C)N1CCC(COc2ncc(C(=O)c3ccccc3Cl)n2C)CC1 [(2-Chlorophenyl)-[2-(1-isopropyl-piperidin-4-ylmethoxy)-3-methyl-3H-imidazol-4-yl]-methanone] | 1.3 nM | 
9 | Cn1c(C(=O)c2ccc(Cl)cc2)cnc1S(=O)(=O)CCC[N+](C)(C)[O-] |  | 10000 nM
10 | CC(C)N1CCC(COc2ncc(C(=O)c3ccc(F)cc3)n2C)CC1 [(4-Fluorophenyl)-[2-(1-isopropyl-piperidin-4-ylmethoxy)-3-methyl-3H-imidazol-4-yl]-methanone] | 2.5 nM | 
11 | CC(C)N1CCC(COc2ncc(C(=O)c3cccc(Cl)c3)n2C)CC1 [(3-Chlorophenyl)-[2-(1-isopropyl-piperidin-4-ylmethoxy)-3-methyl-3H-imidazol-4-yl]-methanone] | 2.8 nM | 
12 | CC(C)N1CCC(COc2ncc(C(=O)c3ccc(Cl)cc3)n2C)CC1 [(4-Chlorophenyl)-[2-(1-isopropylpiperidin-4-ylmethoxy)-3-methyl-3H-imidazol-4-yl]-methanone] | 3.7 nM | 
13 | CN(C)CCCS(=O)(=O)c1ncc(C(=O)c2ccc(Cl)cc2)n1C [(4-Chlorophenyl)-[2-(3-dimethylamino-propane-1-sulfonyl)-3-methyl-3H-imidazol-4-yl]-methanone] |  | 10000 nM
14 | CN(C)CCCSc1ncc(C(=O)c2ccc(Cl)cc2)n1C [(4-Chlorophenyl)-[2-(3-dimethylamino-propylsulfanyl)-3-methyl-3H-imidazol-4-yl]-methanone] | 2 nM | 

Continued, in another order:

Row | Ki [1] | Structure (SMILES) | Ki [2]
15 | 1.6 nM | CN(C)CCCSc1ncc(C(=O)c2ccc(Br)cc2)n1C [(4-Bromophenyl)-[2-(3-dimethylamino-propylsulfanyl)-3-methyl-3H-imidazol-4-yl]-methanone] | 
16 | 25 nM | CC(C)N1CCC(Oc2ncc(C(=O)c3ccc(Cl)cc3)n2C)CC1 [(4-Chlorophenyl)-[2-(1-isopropyl-piperidin-4-yloxy)-3-methyl-3H-imidazol-4-yl]-methanone] | 
17 | 4 nM | CN(C)CCCSc1ncc(C(=O)c2ccccc2)n1C [[2-(3-Dimethylamino-propylsulfanyl)-3-methyl-3H-imidazol-4-yl]-phenyl-methanone] | 
18 | 22 nM | CN(C)CCCSc1ncc(Cc2ccc(Cl)cc2)n1C [{3-[5-(4-Chlorobenzyl)-1-methyl-1H-imidazol-2-ylsulfanyl]-propyl}-dimethyl-amine] | 
19 | 2 nM | CN1CCCC1CCSc1ncc(C(=O)c2ccc(Cl)cc2)n1C (stereo not shown) [(4-Chloro-phenyl)-{3-methyl-2-[2-(1-methyl-pyrrolidin-2-yl)-ethylsulfanyl]-3H-imidazol-4-yl}-methanone] | 
20 | 6.6 nM | CCN1CCC(COc2ncc(C(=O)c3ccc(Br)cc3)n2C)CC1 [(4-Bromophenyl)-[2-(1-ethyl-piperidin-4-ylmethoxy)-3-methyl-3H-imidazol-4-yl]-methanone] | 
21 | 9 nM | CCC(C)N1CCC(COc2ncc(C(=O)c3ccc(Br)cc3)n2C)CC1 (stereo not shown) [(4-Bromophenyl)-[2-(1-sec-butyl-piperidin-4-ylmethoxy)-3-methyl-3H-imidazol-4-yl]-methanone] | 
22 | 315 nM | CN(C)CCC[S+]([O-])c1ncc(C(=O)c2ccc(Cl)cc2)n1C (stereo not shown) [(4-Chloro-phenyl)-[2-(3-dimethylamino-propane-1-sulfinyl)-3-methyl-3H-imidazol-4-yl]-methanone] | 
23 | 4.6 nM | CC(C)N1CCC(COc2ncc(C(=O)c3ccc([N+](=O)[O-])cc3)n2C)CC1 [[2-(1-Isopropyl-piperidin-4-ylmethoxy)-3-methyl-3H-imidazol-4-yl]-(4-nitro-phenyl)-methanone] | 
24 | 4.1 nM | CC(C)N1CCC(COc2ncc(C(=O)c3ccc(C(F)(F)F)cc3)n2C)CC1 [[2-(1-Isopropyl-piperidin-4-ylmethoxy)-3-methyl-3H-imidazol-4-yl]-(4-trifluoromethyl-phenyl)-methanone] | 
25 | 7 nM | CN1CCC(Sc2ncc(C(=O)c3ccc(Cl)cc3)n2C)CC1 [(4-Chloro-phenyl)-[3-methyl-2-(1-methyl-piperidin-4-ylsulfanyl)-3H-imidazol-4-yl]-methanone] | 
26 | 5.3 nM | CC(C)N1CCC(COc2ncc(C(=O)c3ccc(Br)cc3)n2C)CC1 [(4-Bromophenyl)-[2-(1-isopropyl-piperidin-4-ylmethoxy)-3-methyl-3H-imidazol-4-yl]-methanone] | 
27 | 7.6 nM | CC(C)N1CCC(COc2ncc(C(O)c3ccc(C#N)cc3)n2C)CC1 (stereo not shown) [4-{Hydroxy-[2-(1-isopropyl-piperidin-4-ylmethoxy)-3-methyl-3H-imidazol-4-yl]-methyl}-benzonitrile] | 
28 | 7.5 nM | Cn1c(C(=O)c2ccc(Br)cc2)cnc1SCCCN1CCCCC1 [(4-Bromophenyl)-[3-methyl-2-(3-piperidin-1-yl-propylsulfanyl)-3H-imidazol-4-ylmethanone] | 
